Paper PMC9145622, “Synthesis, Biological Evaluation, and Docking Studies of Antagonistic Hydroxylated Arecaidine Esters Targeting mAChRs” (Molecules, 2022)
Read-outs that look alike come from different tables or passages of the source.

What was measured:
hM1 [1] = target: T1, hM1 (Homo sapiens, UniProt P11229); test: Competitive [3H]NMS radioligand binding, CHO-K1 membranes expressing hM1; conditions: for Displacement ± SD hM1: displacement of [3H]NMS, single ligand concentration corresponding to a Ki value of 1 µM (Cheng-Prusoff)
T1 sequence (P11229 1-460): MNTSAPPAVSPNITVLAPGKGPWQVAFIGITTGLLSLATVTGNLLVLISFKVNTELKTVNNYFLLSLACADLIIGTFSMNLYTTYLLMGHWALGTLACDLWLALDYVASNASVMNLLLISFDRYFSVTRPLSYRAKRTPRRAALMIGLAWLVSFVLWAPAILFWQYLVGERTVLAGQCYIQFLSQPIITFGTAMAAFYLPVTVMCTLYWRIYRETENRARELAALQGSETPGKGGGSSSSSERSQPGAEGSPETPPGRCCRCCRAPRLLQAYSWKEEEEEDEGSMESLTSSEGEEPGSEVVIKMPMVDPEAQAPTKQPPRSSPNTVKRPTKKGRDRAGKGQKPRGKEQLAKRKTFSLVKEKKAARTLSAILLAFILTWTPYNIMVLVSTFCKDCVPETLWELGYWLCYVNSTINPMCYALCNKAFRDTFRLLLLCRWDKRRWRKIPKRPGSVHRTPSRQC
Description: (§1) The arecaidine esters’ affinities towards the human mAChR subtypes hM1–hM5 were studied in a competitive radioligand binding assay using CHO-K1 cell membrane homogenates expressing a single mAChR subtype and tritiated N-methyl scopolamine methyl chloride ([^3H]NMS). To speed up our affinity testing regime, we subjected all test substances to preliminary single-concentration displacement assays, as described previously. Compounds with percent displacements below 75% at any of the subtypes were dropped from further investigations (Table S1). For compounds meeting the percent displacement threshold (8c, 10b, 10c, 17b, 18b, and 25), inhibition constants (Ki) were assessed in dose-dependent displacement experiments (Table 2).
(§2) Cell membranes bearing hM1-hM5 receptors were prepared as described previously. Briefly, stably transfected CHO-K1 cells were grown to at least 80% confluency in T175 flasks, washed with ice-cold DPBS, and scraped into a mixture of ice-cold 2 mL 10 mM Tris-HCl, 1 mM EDTA-buffer, pH 7.4 and 200 µL protease inhibitor. A cell homogenate was prepared by passing the cell suspension through a G29 needle. The cell homogenates corresponding to two T175 flasks were combined and subsequently centrifuged (10 min, 1000× g, 4 °C). Ultracentrifugation of the supernatant (1 h, 100,000× g, 4 °C) yielded a membrane pellet, which was suspended in 250 µL 50 mM Tris-HCl buffer, pH 7.4 and stored at −80 °C.
(§3) Then, 5 µL of test compound in DMSO, 50 µL of [^3H]NMS in assay buffer, and 445 µL of membrane suspension in assay buffer were incubated for 90 min at 23 °C in PP tubes. Maximum binding was measured by using 5 µL DMSO, and nonspecific binding was measured by using 5 µL of 1 µM scopolamine in DMSO. The effective concentration of [^3H]NMS was 0.2 nM, 0.3 nM, 0.8 nM, 0.2 nM, and 1 nM for M1–M5 and 4–30 µg membrane were used per tube. The membrane-bound radioactivity was recovered by filtration through Whatman™ GF/B glass fiber filters presoaked in aqueous 0.1% PEI using an M-36 tygon tubed cell harvester (Brandel®, Gaithersburg, MD, USA). Membranes were washed three times with ice-cold washing buffer (50 mM Tris, pH 7.4) before being dried, transferred to 2 mL scintillation cocktail (UltimaGold™, high flashpoint LSC cocktail, PerkinElmer, Waltham, MA, USA) and counted in a β-counter (Hidex TDCR liquid scintillation counter in CPM mode). IC50 values were calculated by a variable slope logistic regression using at least five distinct concentrations of test compounds, pipetted in triplicates.

[2] = set-up: method as in Ozenil et al. [10]; conditions: ref Ozenil et al. [10]; cited from earlier work
hM1 [3] = target: T1, hM1; set-up: method as in Ozenil et al. [10]; conditions: [3H]NMS; ref Ozenil et al. [10]; read-out: Affinity: Ki ± SD hM1; cited from earlier work
hM2 [4] = target: T2, hM2 (Homo sapiens, UniProt P08172); set-up: method as in Ozenil et al. [10]; conditions: [3H]NMS; ref Ozenil et al. [10]; read-out: Affinity: Ki ± SD hM2; cited from earlier work
T2 sequence (P08172 1-466): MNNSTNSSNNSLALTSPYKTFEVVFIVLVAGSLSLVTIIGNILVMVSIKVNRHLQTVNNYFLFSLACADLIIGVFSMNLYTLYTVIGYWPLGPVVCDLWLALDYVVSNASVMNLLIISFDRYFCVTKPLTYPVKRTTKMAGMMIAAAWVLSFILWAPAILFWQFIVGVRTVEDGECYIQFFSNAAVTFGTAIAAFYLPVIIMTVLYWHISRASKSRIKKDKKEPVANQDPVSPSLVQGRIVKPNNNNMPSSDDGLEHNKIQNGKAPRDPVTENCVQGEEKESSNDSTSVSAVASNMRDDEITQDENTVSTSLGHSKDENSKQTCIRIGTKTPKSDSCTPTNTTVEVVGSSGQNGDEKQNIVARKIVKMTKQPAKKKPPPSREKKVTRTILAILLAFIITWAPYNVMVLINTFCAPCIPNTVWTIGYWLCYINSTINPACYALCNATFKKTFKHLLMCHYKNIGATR

hM3 [5] = target: T3, hM3 (Homo sapiens, UniProt P20309); set-up: method as in Ozenil et al. [10]; conditions: [3H]NMS; ref Ozenil et al. [10]; read-out: Affinity: Ki ± SD hM3; cited from earlier work
hM4 [6] = target: T4, hM4 (Homo sapiens, UniProt P08173); set-up: method as in Ozenil et al. [10]; conditions: [3H]NMS; ref Ozenil et al. [10]; read-out: Affinity: Ki ± SD hM4; cited from earlier work
T4 sequence (P08173 1-479): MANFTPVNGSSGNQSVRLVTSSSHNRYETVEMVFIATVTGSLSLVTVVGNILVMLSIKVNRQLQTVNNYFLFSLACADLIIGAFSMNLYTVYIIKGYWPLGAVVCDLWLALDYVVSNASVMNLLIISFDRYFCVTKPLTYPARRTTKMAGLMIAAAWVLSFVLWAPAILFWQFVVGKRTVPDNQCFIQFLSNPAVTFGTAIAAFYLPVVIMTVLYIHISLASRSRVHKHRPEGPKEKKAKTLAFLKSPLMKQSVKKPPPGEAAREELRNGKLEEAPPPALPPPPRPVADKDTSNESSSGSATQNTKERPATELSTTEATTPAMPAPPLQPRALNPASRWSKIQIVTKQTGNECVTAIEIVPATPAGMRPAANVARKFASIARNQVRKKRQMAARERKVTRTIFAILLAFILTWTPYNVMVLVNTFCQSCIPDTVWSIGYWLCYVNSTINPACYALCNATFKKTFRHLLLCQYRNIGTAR

hM5 [7] = target: T5, hM5 (Homo sapiens, UniProt P08912); set-up: method as in Ozenil et al. [10]; conditions: [3H]NMS; ref Ozenil et al. [10]; read-out: Affinity: Ki ± SD hM5; cited from earlier work
T5 sequence (P08912 1-532): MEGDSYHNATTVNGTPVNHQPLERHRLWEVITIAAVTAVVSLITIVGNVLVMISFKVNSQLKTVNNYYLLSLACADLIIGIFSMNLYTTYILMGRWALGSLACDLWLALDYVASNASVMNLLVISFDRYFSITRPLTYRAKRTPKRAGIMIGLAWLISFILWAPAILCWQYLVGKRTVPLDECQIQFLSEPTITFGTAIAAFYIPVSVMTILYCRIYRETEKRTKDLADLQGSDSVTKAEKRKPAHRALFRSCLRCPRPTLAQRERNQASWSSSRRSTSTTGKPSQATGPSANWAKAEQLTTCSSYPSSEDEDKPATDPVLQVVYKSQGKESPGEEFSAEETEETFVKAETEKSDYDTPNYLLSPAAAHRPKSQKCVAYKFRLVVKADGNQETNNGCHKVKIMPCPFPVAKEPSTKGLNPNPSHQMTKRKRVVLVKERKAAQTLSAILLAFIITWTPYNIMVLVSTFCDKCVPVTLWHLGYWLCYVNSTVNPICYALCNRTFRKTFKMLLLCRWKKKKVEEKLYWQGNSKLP

[8] = High-throughput HPLC-logD; type: physicochemical; conditions: octadecyl-poly(vinyl alcohol) column, methanol / 0.01 M sodium phosphate buffer pH 7.4
Description: For this, logD values were estimated in an HPLC-based high-throughput assay employing an octadecyl-poly(vinyl alcohol) stationary phase. The absence of silanol groups renders this type of column especially suited in case of analytes with hydrogen bond donor capabilities as it avoids overestimating their lipophilicity.
Briefly, a mixture of toluene (≥98%, Sigma-Aldrich, St. Louis, MO, USA) and triphenylene (≥99.9%, Carl Roth, Karlsruhe, Germany) was used as internal standard. Samples were dissolved in the internal standard mixture. Using gradient elution, the injection volume was set to 7 µL, the flow rate was 1.5 mL/min, and the mobile phase consisted of a mixture of methanol and 0.01 M sodium phosphate buffer pH 7.4. The HPLC-logD values were derived from the measured retention times following the previously published equation [21, 40].

hM2 [9] = target: T2, hM2; test: Competitive [3H]NMS radioligand binding, CHO-K1 membranes expressing hM2; conditions: for Displacement ± SD hM2: displacement of [3H]NMS, single ligand concentration corresponding to a Ki value of 1 µM (Cheng-Prusoff)
Description: as §1, §2, §3

hM3 [10] = target: T3, hM3; test: Competitive [3H]NMS radioligand binding, CHO-K1 membranes expressing hM3; conditions: for Displacement ± SD hM3: displacement of [3H]NMS, single ligand concentration corresponding to a Ki value of 1 µM (Cheng-Prusoff)
Description: as §1, §2, §3

hM4 [11] = target: T4, hM4; test: Competitive [3H]NMS radioligand binding, CHO-K1 membranes expressing hM4; conditions: for Displacement ± SD hM4: displacement of [3H]NMS, single ligand concentration corresponding to a Ki value of 1 µM (Cheng-Prusoff)
Description: as §1, §2, §3

hM5 [12] = target: T5, hM5; test: Competitive [3H]NMS radioligand binding, CHO-K1 membranes expressing hM5; conditions: for Displacement ± SD hM5: displacement of [3H]NMS, single ligand concentration corresponding to a Ki value of 1 µM (Cheng-Prusoff)
Description: as §1, §2, §3

T3 sequence (P20309 whole entry): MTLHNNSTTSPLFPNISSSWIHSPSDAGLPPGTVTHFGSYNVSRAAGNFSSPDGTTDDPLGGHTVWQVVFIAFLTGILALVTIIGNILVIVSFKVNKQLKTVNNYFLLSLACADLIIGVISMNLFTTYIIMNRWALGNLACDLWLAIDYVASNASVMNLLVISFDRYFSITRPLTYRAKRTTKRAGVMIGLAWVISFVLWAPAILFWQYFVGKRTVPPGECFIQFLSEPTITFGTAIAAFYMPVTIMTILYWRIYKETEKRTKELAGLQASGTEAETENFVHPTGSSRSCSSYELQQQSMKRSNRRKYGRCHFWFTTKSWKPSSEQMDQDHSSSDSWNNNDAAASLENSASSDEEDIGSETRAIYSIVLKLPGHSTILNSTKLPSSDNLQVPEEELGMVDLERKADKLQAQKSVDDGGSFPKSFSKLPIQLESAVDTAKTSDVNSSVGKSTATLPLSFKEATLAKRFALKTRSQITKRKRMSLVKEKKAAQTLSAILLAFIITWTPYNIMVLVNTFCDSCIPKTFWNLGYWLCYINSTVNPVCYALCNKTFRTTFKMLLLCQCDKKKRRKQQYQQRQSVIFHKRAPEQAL

chromatographic logD [8] | Structure (SMILES) | Displacement ± SD hM1 (hM1 [1]) | Displacement ± SD hM2 (hM2 [9]) | Displacement ± SD hM3 (hM3 [10]) | Displacement ± SD hM4 (hM4 [11]) | Displacement ± SD hM5 (hM5 [12]) | further results
 | CN1CCC=C(C(=O)OC(c2ccccc2)c2ccccc2)C1 [DPMA, benzhydryl 1-methyl-1,2,5,6-tetrahydropyridine-3-carboxylate] |  |  |  |  |  | x-Fold Selectivity for hM1 vs. hM2 (hM1 [1]; ratio of the Ki values hM2/hM1): 35.5 x-fold; x-Fold Selectivity for hM1 vs. hM3 (hM1 [1]; ratio of the Ki values hM3/hM1): 18.1 x-fold; x-Fold Selectivity for hM1 vs. hM4 (hM1 [1]; ratio of the Ki values hM4/hM1): 5.2 x-fold; x-Fold Selectivity for hM1 vs. hM5 (hM1 [1]; ratio of the Ki values hM5/hM1): 4.5 x-fold; HPLC-logD [2]: 3.32 ± 0.04 ^2; Ki (hM1 [3]): 3.1 ± 0.5 nM; Ki (hM2 [4]): 110 ± 39 nM; Ki (hM3 [5]): 56 ± 22 nM; Ki (hM4 [6]): 16 ± 4 nM; Ki (hM5 [7]): 14 ± 1 nM
0.79 ± 0.01 | CN1CCC=C(C(=O)OCc2ccccc2CO)C1 [Compound 8a, 2-(hydroxymethyl)benzyl 1-methyl-1,2,5,6-tetrahydropyridine-3-carboxylate] | 66 ± 5% | 43 ± 2% | 72 ± 4% | 56 ± 9% | 72 ± 3% | 
2.6 ± 0.1 | CN1CCC=C(C(=O)OC(c2ccccc2)c2cccc(CO)c2)C1 (centres unmarked) [Compound 10b, (3-(hydroxymethyl)phenyl)(phenyl)methyl 1-methyl-1,2,5,6-tetrahydropyridine-3-carboxylate] |  |  |  |  |  | Ki (hM1 [1]; [3H]NMS, CHO-hM1 cell membrane preparations, read-out: Affinity: Ki ± SD hM1): 12.5 ± 0.8 nM; Ki (hM2 [9]; [3H]NMS, CHO-hM2 cell membrane preparations, >1000 values from two independent (single-concentration) experiments, read-out: Affinity: Ki ± SD hM2): 198 ± 35 nM; Ki (hM3 [10]; [3H]NMS, CHO-hM3 cell membrane preparations, read-out: Affinity: Ki ± SD hM3): 70.4 ± 1.8 nM; Ki (hM4 [11]; [3H]NMS, CHO-hM4 cell membrane preparations, read-out: Affinity: Ki ± SD hM4): 32.3 ± 3.8 nM; Ki (hM5 [12]; [3H]NMS, CHO-hM5 cell membrane preparations, read-out: Affinity: Ki ± SD hM5): 49.1 ± 8.5 nM
0.92 ± 0.08 | CN1CCC=C(C(=O)OC(CO)c2ccccc2)C1 (centres unmarked) [Compound 22, 2-hydroxy-1-phenylethyl 1-methyl-1,2,5,6-tetrahydropyridine-3-carboxylate] | 61 ± 2% | 28 ± 5% | 33 ± 8% | 51 ± 5% | 72 ± 5% | 

Structure (SMILES) | chromatographic logD [8] | Displacement ± SD hM1 (hM1 [1]) | Displacement ± SD hM2 (hM2 [9]) | Displacement ± SD hM3 (hM3 [10]) | Displacement ± SD hM4 (hM4 [11]) | Displacement ± SD hM5 (hM5 [12]) | further results
CN1CCC=C(C(=O)OCc2cccc(CO)c2)C1 [Compound 8b, 3-(hydroxymethyl)benzyl 1-methyl-1,2,5,6-tetrahydropyridine-3-carboxylate] | 0.87 ± 0.01 | 31 ± 3% | 23 ± 4% | 34 ± 4% | 22 ± 1% | 29 ± 6% | 
CN1CCC=C(C(=O)Oc2ccccc2-c2ccccc2O)C1 [Compound 27, 2′-hydroxy-[1,1′-biphenyl]-2-yl 1-methyl-1,2,5,6-tetrahydropyridine-3-carboxylate] | 2.69 ± 0.01 | 37 ± 6% | 34 ± 7% | 51 ± 9% | 46 ± 3% | 65 ± 11% | melting point: 142 to 144 °C
